Results from patent US20240060146A1, “CHEMICAL SUBSTANCE EVALUATION SYSTEM USING MULTICOLOR LIGHT-EMITTING CELLS” (TOHOKU UNIVERSITY, priority 2020, published 2024).

Tests used:
Format in all cases: cell-based
2H4 cells [1] = experiment: Evaluation of combination of IL-2 Luc LTT and IL-2 Luc assay; set-up: key: Positive (Pos): If the result is either LCT in the IL-2 Luc LTT or S in the IL-2 Luc assay, or both, the chemical substance is determined to be an immunosuppressive substance.; Negative (Neg): In the case other than the above, the chemical substance is determined to be a non-immunosuppressive substance; settings: LCT in IL-2 Luc LTT or S in IL-2 Luc assay = Pos
Description: Positive (Pos): If the result is either LCT in the IL-2 Luc LTT or S in the IL-2 Luc assay, or both, the chemical substance is determined to be an immunosuppressive substance. Negative (Neg): In the case other than the above, the chemical substance is determined to be a non-immunosuppressive substance.

2H4 cells [2] = experiment: IL-2 Luc LTT: evaluation of chemical substance in 2H4 cells; settings: 1 h chemical, then 25 nM PMA and 1 μM ionomycin 24 h, class from Min % suppression (nIL2LA) and Min Inh-GAPLA
Description: (§1) 2H4 cells were established from Jurkat cells according to the method described in PTL 1. First, for the preparation of 2H4 cells, a plasmid having SLG introduced downstream of the IL-2 promoter, a plasmid having SLR introduced downstream of the G3PDH promoter, and a plasmid having SLO introduced downstream of the INF-γ promoter were prepared as internal standards. These plasmids contained a resistance gene for hygromycin B, puromycin, and neomycin downstream of SLG, SLR, and SLO, respectively. The conditions for drug selection after transfection of the host Jurkat cells were as follows: in the primary selection, the cells were cultured for 1 week in the presence of a drug. In the secondary selection culture, the cells that survived in the primary selection culture were seeded in a 96-well plate at 1 cell/well or 200 cells/well, and cultured for 2 weeks under the same drug conditions. After the secondary selection culture, the cells were subjected to clone selection from the two points of signal intensity and signal induction by drug treatment. The G3PDH promoter SLR was first introduced to establish monochromatic stable cell line Jurkat: G3PDH-SLR #14D1 cells. These cells were used as the parent cell line to introduce the INF-γ promoter SLO, thereby establishing bichromatic stable cell line Jurkat: INFγ-SLO/G3PDH-SLR #2B12 cells. Subsequently, the obtained cells were used as a parent cell line to introduce the IL-2 promoter SLG, thereby establishing trichromatic stable cell line Jurkat IL-2-SLG/INFγ-SLO/G3PDH-SLR #2H4 cells.
The chemical substances listed in Table 1 were evaluated using 2H4 cells. 2H4 cells were seeded in a 96-well plate at 1×10^4/well and treated with each chemical substance for 1 hour, followed by incubating the cells with 25 nM PMA and 1 μM ionomycin for 24 hours. After 24 hours from the treatment with PMA and ionomycin, Tripluck Assay Reagent (manufactured by Toyobo Co., Ltd.) was added, and the amount of luminescence was measured with a Phelios microplate luminometer (manufactured by Atto Corporation). For control, 2H4 cells untreated with a chemical substance were also examined in the same manner. The amount of luminescence of SLG luciferase activity (IL2LA), SLR luciferase activity (GAPLA), and SLO luciferase activity (IFNLA) was measured, and IL-2LA and IFNLA were each normalized by GAPLA and determined to be nIL2LA and nIFNLA, respectively. Thereafter, for the concentration of each chemical substance, “% suppression” and “Inh-GAPLA” were determined according to the following formulas (1) and (2), and the chemical substances were evaluated by using their minimum value (Min % suppression, Min Inh-GAPLA).
In the evaluation, for control, PMA/ionomycin-treated 2H4 cells and PMA/ionomycin-untreated 2H4 cells were also measured for nIL2LA.
(§2) % suppression={(nIL2LA in 2H4 cells untreated with a chemical substance)−(nIL2LA in 2H4 cells treated with a chemical substance)}×100/(nIL2LA in 2H4 cells untreated with a chemical substance) ---(1) Inh-GAPLA=(GAPLA in 2H4 cells treated with a chemical substance)/(GAPLA in 2H4 cells untreated with a chemical substance) ---(2)

2H4 cells [3] = experiment: IL-2 Luc assay: evaluation of chemical substance in 2H4 cells; settings: 1 h chemical, then PMA/ionomycin, luminescence after six hours, class from Min % suppression of nIL2LA
Description: as §1, §2
The chemical substances listed in Table 1 were evaluated using 2H4 cells. 2H4 cells were seeded in a 96-well plate at 2×10^5 cells/50 μl/well and treated with each chemical substance for 1 hour, followed by incubating the cells with 25 nM PMA and 1 µM ionomycin […]. After six hours from the treatment with PMA and ionomycin, Tripluc: Assay Reagent (manufactured by Toyobo Co., Ltd.) was added, and the amount of luminescence was measured with a Phelios microplate luminometer (manufactured by Atto Corporation). For control, 2H4 cells untreated with a chemical substance were also examined in the same manner. The amount of luminescence of SLG luciferase activity (IL2LA), SLR luciferase activity (GAPLA), and SLO luciferase activity (IFNLA) was measured, and IL-2LA and IFNLA were each normalized by GAPLA and determined to be nIL2LA and nIFNLA, respectively. Thereafter, for the concentration of each chemical substance, the value of suppression was calculated according to formula (1) above, and the chemical substances were evaluated by using their minimum value (Min suppression).

Molecule	Evaluation of Combination (2H4 cells [1])	IL-2 Luc LTT (2H4 cells [2])	IL-2 Luc Assay (2H4 cells [3])
C=CC[C@@H]1/C=C(\C)C[C@H](C)C[C@H](OC)[C@H]2O[C@@](O)(C(=O)C(=O)N3CCCC[C@H]3C(=O)O[C@H](/C(C)=C/[C@@H]3CC[C@@H](O)[C@H](OC)C3)[C@H](C)[C@@H](O)CC1=O)[C@H](C)C[C@@H]2OC [Tacrolimus (Tac), Tacrolimus]	Pos	NLCT	S (Min %; suppression ≥35: Suppression (denoted as “S”; determined to have immunosuppressive action))
CC(=O)CC(c1ccccc1)c1c(O)c2ccccc2oc1=O (stereo not drawn) [Warfarin]	Neg	NLCT	N (−35<Min % suppression <35: No Effect (denoted as “N”; determined to not affect immunity))
Bleomycin sulfate	Pos	LCT (Min % suppression ≤−35 and Min Inh-GAPLA <0.7: Leukocyte toxic (denoted as “LCT”; determined to have cell growth inhibition action and/or metabolic activity inhibition action))	N (−35<Min % suppression <35: No Effect (denoted as “N”; determined to not affect immunity))

The next lines start with results.

Evaluation of Combination (2H4 cells [1])	Molecule	IL-2 Luc LTT (2H4 cells [2])	IL-2 Luc Assay (2H4 cells [3])
Pos	COc1cc([C@@H]2c3cc4c(cc3[C@@H](O[C@@H]3O[C@@H]5CO[C@@H](c6cccs6)O[C@H]5[C@H](O)[C@H]3O)[C@H]3COC(=O)[C@H]23)OCO4)cc(OC)c1O [Teniposide]	LCT (Min % suppression ≤−35 and Min Inh-GAPLA <0.7: Leukocyte toxic (denoted as “LCT”; determined to have cell growth inhibition action and/or metabolic activity inhibition action))	N (−35<Min % suppression <35: No Effect (denoted as “N”; determined to not affect immunity))
Pos	CN(C/C=C/C#CC(C)(C)C)Cc1cccc2ccccc12 [Terbinafine]	NLCT	N (−35<Min % suppression <35: No Effect (denoted as “N”; determined to not affect immunity))
